According to ChEMBL document CHEMBL1201862, “PubChem BioAssay data set” (2004):
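Following 48 hours of exposure in 96-well plates, responses at five concentrations were used to interpolate endpoints linearly. Abbreviation: GI50, concentration required for 50% inhibition of growth.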 Activity calls are given as the source filed them. Cut-off read from the data, not from the text of the source: active = GI50 up to about 1.1 µM and inactive = higher.

Legend:
Test in all cases: growth of human tumour cells (NCI), 48 h
NCI-H23 = test system: NCI-H23
ACHN = test system: ACHN
OVCAR-4 = test system: OVCAR-4
CCRF-CEM = test system: CCRF-CEM
EKVX = test system: EKVX
SK-OV-3 = test system: SK-OV-3
Malme-3M = test system: Malme-3M
RPMI-8226 = test system: RPMI-8226
786-0 = test system: 786-0
SN12C = test system: SN12C
A498 = test system: A498
SNB-75 = test system: SNB-75
KM12 = test system: KM12
UO-31 = test system: UO-31
SR = test system: SR
CAKI-1 = test system: CAKI-1
HL-60 = test system: HL-60
Hs-578T = test system: Hs-578T

Compound	GI50 (NCI-H23)	GI50 (ACHN)	GI50 (OVCAR-4)	GI50 (CCRF-CEM)	GI50 (EKVX)	GI50 (SK-OV-3)	GI50 (Malme-3M)	GI50 (RPMI-8226)	GI50 (786-0)	GI50 (SN12C)	GI50 (A498)	GI50 (SNB-75)	GI50 (KM12)	GI50 (UO-31)	GI50 (SR)	GI50 (CAKI-1)	GI50 (HL-60)	GI50 (Hs-578T)
CC1[C@@]2(CCC(C)(C)O2)O[C@@H]2C=C3C4CCC5Cc6nc7c(nc6C[C@@]5(C)C4C[C@H](O)[C@@]3(C)[C@]12O)CC1CCC2C3=C[C@H]4O[C@@]5(O[C@@](C)(CO)C[C@@H]5O)C(C)[C@@]4(O)[C@]3(C)[C@@H](O)CC2[C@]1(C)C7 (stereo partly drawn)	0.118 µM (active)	0.103 µM (active)	0.723 µM (active)	0.0199 µM (active)	0.175 µM (active)	0.0863 µM (active)	0.175 µM (active)	0.00653 µM (active)	0.0168 µM (active)	0.975 µM (active)	0.0313 µM (active)	0.00762 µM (active)	0.109 µM (active)	0.047 µM (active)	0.0264 µM (active)	0.111 µM (active)	0.0307 µM (active)	–
CC(CO)CCNc1ncnc2c1ncn2CCC(=O)OC(C)(C)C (stereo not drawn)	> 100 µM (inactive)	> 100 µM (inactive)	> 100 µM (inactive)	> 100 µM (inactive)	> 100 µM (inactive)	> 100 µM (inactive)	> 100 µM (inactive)	> 100 µM (inactive)	> 100 µM (inactive)	> 100 µM (inactive)	> 100 µM (inactive)	> 100 µM (inactive)	> 100 µM (inactive)	> 100 µM (inactive)	> 100 µM (inactive)	> 100 µM (inactive)	> 100 µM (inactive)	> 100 µM (inactive)
Cc1oc2c(C)c(O)c3c(c2c1C1(C)OCCO1)C(=O)C=C(Cl)C3=O	> 100 µM (inactive)	> 100 µM (inactive)	> 100 µM (inactive)	> 100 µM (inactive)	> 100 µM (inactive)	–	–	> 100 µM (inactive)	> 100 µM (inactive)	> 100 µM (inactive)	> 100 µM (inactive)	–	> 100 µM (inactive)	> 100 µM (inactive)	> 100 µM (inactive)	> 100 µM (inactive)	> 100 µM (inactive)	–
CC(C)=CCC12Cc3ccc(O)cc3C(C(C)CN1)C2C (stereo not drawn)	> 100 µM (inactive)	> 100 µM (inactive)	> 100 µM (inactive)	46.8 µM (inactive)	> 100 µM (inactive)	> 100 µM (inactive)	> 100 µM (inactive)	37.2 µM (inactive)	> 100 µM (inactive)	> 100 µM (inactive)	50.9 µM (inactive)	99.5 µM (inactive)	> 100 µM (inactive)	27 µM (inactive)	39.2 µM (inactive)	–	28.1 µM (inactive)	67.6 µM (inactive)
CN(C)c1ccc(-c2cc(O)c3ccccc3n2)cc1	> 100 µM (inactive)	> 100 µM (inactive)	–	> 100 µM (inactive)	> 100 µM (inactive)	–	> 100 µM (inactive)	> 100 µM (inactive)	> 100 µM (inactive)	> 100 µM (inactive)	–	–	> 100 µM (inactive)	> 100 µM (inactive)	> 100 µM (inactive)	–	> 100 µM (inactive)	–
COC(=O)/C(=C\Nc1cccc(C)n1)S(=O)(=O)c1ccc(C)cc1	40.6 µM (inactive)	> 100 µM (inactive)	93.5 µM (inactive)	37.8 µM (inactive)	–	> 100 µM (inactive)	> 100 µM (inactive)	> 100 µM (inactive)	> 100 µM (inactive)	> 100 µM (inactive)	–	71 µM (inactive)	35.5 µM (inactive)	36.4 µM (inactive)	61.2 µM (inactive)	–	20.7 µM (inactive)	38.9 µM (inactive)
C[N+]1(C)CCCC(C#N)(c2ccccc2)CC1 (stereo not drawn)	> 100 µM (inactive)	> 100 µM (inactive)	> 100 µM (inactive)	> 100 µM (inactive)	> 100 µM (inactive)	> 100 µM (inactive)	> 100 µM (inactive)	> 100 µM (inactive)	> 100 µM (inactive)	–	> 100 µM (inactive)	> 100 µM (inactive)	> 100 µM (inactive)	> 100 µM (inactive)	> 100 µM (inactive)	> 100 µM (inactive)	> 100 µM (inactive)	> 100 µM (inactive)
CC(C)(C)[C@H]1CO[C@]2(C)[C@@H]3C[C@@H]3C(=O)N12	> 100 µM (inactive)	> 100 µM (inactive)	> 100 µM (inactive)	> 100 µM (inactive)	> 100 µM (inactive)	> 100 µM (inactive)	> 100 µM (inactive)	> 100 µM (inactive)	> 100 µM (inactive)	> 100 µM (inactive)	–	> 100 µM (inactive)	> 100 µM (inactive)	> 100 µM (inactive)	> 100 µM (inactive)	> 100 µM (inactive)	> 100 µM (inactive)	–
Cc1cc(N(CCC#N)CCC#N)ccc1/N=N/c1cccc(Cl)c1	80.7 µM (inactive)	> 100 µM (inactive)	> 100 µM (inactive)	> 100 µM (inactive)	> 100 µM (inactive)	> 100 µM (inactive)	> 100 µM (inactive)	> 100 µM (inactive)	> 100 µM (inactive)	> 100 µM (inactive)	> 100 µM (inactive)	–	> 100 µM (inactive)	> 100 µM (inactive)	–	2.96 µM (inactive)	3.94 µM (inactive)	–
COc1c(C(=O)NCCN(CCNC(=O)c2cccc(-c3cccc(C(=O)N(C)C)c3OC)c2OC)CCNC(=O)c2cccc(-c3cccc(C(=O)N(C)C)c3OC)c2OC)cccc1-c1cccc(C(=O)N(C)C)c1OC	43.2 µM (inactive)	> 100 µM (inactive)	28.3 µM (inactive)	31.3 µM (inactive)	47.6 µM (inactive)	48.1 µM (inactive)	18.7 µM (inactive)	25.9 µM (inactive)	57.3 µM (inactive)	24.4 µM (inactive)	–	28.7 µM (inactive)	17.3 µM (inactive)	> 100 µM (inactive)	26.6 µM (inactive)	> 100 µM (inactive)	39.4 µM (inactive)	32.4 µM (inactive)
O=C(CC(C(=O)c1ccco1)c1ccsc1)c1ccco1 (stereo not drawn)	> 100 µM (inactive)	> 100 µM (inactive)	75.2 µM (inactive)	> 100 µM (inactive)	> 100 µM (inactive)	> 100 µM (inactive)	–	> 100 µM (inactive)	> 100 µM (inactive)	> 100 µM (inactive)	> 100 µM (inactive)	47 µM (inactive)	> 100 µM (inactive)	58.9 µM (inactive)	67.8 µM (inactive)	> 100 µM (inactive)	89.7 µM (inactive)	> 100 µM (inactive)
Cc1cccc(NC2=NC(=O)C(CC(=O)Nc3ccccc3Cl)S2)c1 (stereo not drawn)	> 100 µM (inactive)	> 100 µM (inactive)	> 100 µM (inactive)	> 100 µM (inactive)	> 100 µM (inactive)	–	> 100 µM (inactive)	> 100 µM (inactive)	> 100 µM (inactive)	> 100 µM (inactive)	> 100 µM (inactive)	> 100 µM (inactive)	–	> 100 µM (inactive)	> 100 µM (inactive)	> 100 µM (inactive)	> 100 µM (inactive)	–
CC(C)C1OC(=O)/C=C/C=C/C=C/C=C/C=C/CC(O)C(C)C(O)CC(O)CC(O)CC(O)CC(O)CC(O)CC(O)/C=C/C1C (stereo not drawn)	> 100 µM (inactive)	> 100 µM (inactive)	> 100 µM (inactive)	> 100 µM (inactive)	> 100 µM (inactive)	> 100 µM (inactive)	70.5 µM (inactive)	> 100 µM (inactive)	–	–	> 100 µM (inactive)	> 100 µM (inactive)	> 100 µM (inactive)	> 100 µM (inactive)	> 100 µM (inactive)	–	> 100 µM (inactive)	> 100 µM (inactive)
CCNC(=O)N(CC)CN(CC)C(=O)NCC	–	> 100 µM (inactive)	–	> 100 µM (inactive)	> 100 µM (inactive)	> 100 µM (inactive)	> 100 µM (inactive)	> 100 µM (inactive)	–	> 100 µM (inactive)	> 100 µM (inactive)	> 100 µM (inactive)	> 100 µM (inactive)	> 100 µM (inactive)	–	> 100 µM (inactive)	> 100 µM (inactive)	–
CCCNC1=NC(C)=CSC(Nc2ccccc2)=C1C#N	> 100 µM (inactive)	> 100 µM (inactive)	> 100 µM (inactive)	–	–	> 100 µM (inactive)	> 100 µM (inactive)	> 100 µM (inactive)	> 100 µM (inactive)	> 100 µM (inactive)	> 100 µM (inactive)	–	> 100 µM (inactive)	> 100 µM (inactive)	> 100 µM (inactive)	> 100 µM (inactive)	–	–
O=C1CSC(C(/N=N/c2ccccc2)=C2Nc3ccccc3N2)=N1	74.5 µM (inactive)	31 µM (inactive)	> 100 µM (inactive)	5.79 µM (inactive)	31.1 µM (inactive)	18.3 µM (inactive)	58.3 µM (inactive)	–	25.8 µM (inactive)	66.8 µM (inactive)	30.7 µM (inactive)	34.4 µM (inactive)	66.1 µM (inactive)	95.7 µM (inactive)	12.5 µM (inactive)	24.9 µM (inactive)	35.9 µM (inactive)	–
CSc1nc(Cl)c(Br)c(Nc2cnc(O)nc2O)n1	17.3 µM (inactive)	18.7 µM (inactive)	15.6 µM (inactive)	17.7 µM (inactive)	15.3 µM (inactive)	19.4 µM (inactive)	20.7 µM (inactive)	28.3 µM (inactive)	13.4 µM (inactive)	18.2 µM (inactive)	11.6 µM (inactive)	17.7 µM (inactive)	22.8 µM (inactive)	20.3 µM (inactive)	–	1.79 µM (inactive)	2.06 µM (inactive)	–
